Our source for the IC50 values is patent publication US11814367B2, “Inhibitors of glycogen synthase 1 (GYS1) and methods of use thereof” (Maze Therapeutics, Inc., priority 2021, dated 2023).

For assay [1], the target named is hGYS1 enzyme (recombinant hGYS1/GN1 protein) (Homo sapiens (Human), UniProt P13807). The assay can be described thus: GYS1 coupled enzyme assay (PK/LDH). It counts as biochemical. The settings on record: hGYS1/GN1 50 nM, UDP-Glucose 0.8 mM, G6P 1 mM; geometric mean of at least 2 runs.
Assay [2] deals with hGYS2 enzyme (recombinant hGYS2/GN1 protein) (Homo sapiens (Human), UniProt P54840). The assay can be described thus: GYS2 coupled enzyme assay (PK/LDH). In kind it is biochemical. The settings on record: geometric mean of at least 2 assay runs on separate days, read-out: Avg_IC50. The source says:
The GYS2 coupled enzyme assay is a kinetic biochemical assay that indirectly quantifies the rate of glycogen synthesis by coupling the conversion of GYS2 substrate UDP-glucose into UDP with downstream enzymatic reactions. UDP is released from UDP-glucose as glucose monomers are linked into the growing glycogen strand by GYS2. The coupled assay then proceeds with pyruvate kinase utilizing UDP and phospho(enol)pyruvate (PEP) to form pyruvate. Lactate dehydrogenase then converts pyruvate and NADH into lactate and NAD+. Oxidation of NADH to NAD+ can be measured continuously with a plate reader by quantifying the decrease in NADH absorbance at 340 nm over time.
Compounds that inhibit the hGYS2 enzyme and, subsequently, the downstream conversion of NADH to NAD+, were tested using assay ready plates (black, clear bottom 384 well plates) in a final DMSO reaction volume of 2.5% DMSO. The Assay Buffer contained 50 mM Tris pH 7.5, 2 mM MgCl2, and 100 mM KCl. Fresh stocks of BSA at a final concentration of 0.02% and TCEP 1 mM were added before splitting buffer into hGYS2 buffer and substrate buffer. To the hGYS2 buffer, rabbit liver glycogen was added at a final concentration of 0.2% glycogen. Glucose-6-Phosphate was added at 2 mM, recombinant hGYS2/GN1 protein was added at 200 nM to the substrate buffer, phosphoenolpyruvate (PEP) was added at 2 mM, UDP-Glucose was added at 2 mM, NADH was added at 0.6 mM, and Pyruvate Kinase/Lactate Dehydrogenase was added at 20 units/mL. The reaction was initiated by mixing hGYS2 buffer and substrate buffer at a 1:1 ratio. Both buffers were plated using a liquid dispensing device with hGYS2 buffer plated first followed by the substrate buffer. Plates were spun briefly to eliminate air bubbles and are immediately read in continuous mode at an absorbance of 340 nm, for 10 time points in one-minute increments, for a total of 10 minutes. The slope from these 10 time points was normalized to the positive and negative control wells. The duplicate % inhibition values are then averaged and fit to a Hill equation for dose response according to the Levenberg-Marquardt algorithm with the Hill equation maximum set to 100 and the minimum set to 0.
The results are shown in Table 4 below, which reports the IC50 of each compound. Unless otherwise specified, IC50 values are reported as the geometric mean of at least 2 assay runs on separate days. As shown in the table below, the compounds of the present invention are not potent inhibitors of human GYS2. Unless otherwise specified, IC50 values are reported as the geometric mean of at least two assay runs on separate days. Each run represents the average of a technical replicate, where each compound was assayed twice in the same plate. A superscript “#” symbol in Table 4 indicates results from a single assay run.

hGYS2 enzyme (recombinant hGYS2/GN1 protein), sequence (P54840 whole entry): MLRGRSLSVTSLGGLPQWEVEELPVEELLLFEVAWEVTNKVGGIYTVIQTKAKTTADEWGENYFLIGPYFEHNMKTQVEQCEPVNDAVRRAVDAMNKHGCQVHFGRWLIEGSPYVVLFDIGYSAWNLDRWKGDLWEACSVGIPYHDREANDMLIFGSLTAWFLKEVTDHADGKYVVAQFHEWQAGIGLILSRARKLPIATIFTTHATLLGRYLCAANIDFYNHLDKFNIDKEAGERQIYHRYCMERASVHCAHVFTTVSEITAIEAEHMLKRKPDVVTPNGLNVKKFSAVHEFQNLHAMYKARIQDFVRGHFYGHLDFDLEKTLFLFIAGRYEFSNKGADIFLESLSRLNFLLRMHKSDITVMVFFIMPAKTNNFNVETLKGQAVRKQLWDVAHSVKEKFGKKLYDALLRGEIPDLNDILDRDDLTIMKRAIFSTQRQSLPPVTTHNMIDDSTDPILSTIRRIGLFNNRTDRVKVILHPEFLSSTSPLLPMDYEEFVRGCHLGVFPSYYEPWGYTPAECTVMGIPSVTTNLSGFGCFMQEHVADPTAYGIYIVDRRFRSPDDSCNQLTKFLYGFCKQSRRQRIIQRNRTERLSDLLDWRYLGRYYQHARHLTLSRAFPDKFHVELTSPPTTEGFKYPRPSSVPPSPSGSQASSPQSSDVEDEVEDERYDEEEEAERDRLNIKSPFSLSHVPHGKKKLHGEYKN
hGYS2 enzyme (recombinant hGYS2/GN1 protein), sequence (P46976 whole entry partner): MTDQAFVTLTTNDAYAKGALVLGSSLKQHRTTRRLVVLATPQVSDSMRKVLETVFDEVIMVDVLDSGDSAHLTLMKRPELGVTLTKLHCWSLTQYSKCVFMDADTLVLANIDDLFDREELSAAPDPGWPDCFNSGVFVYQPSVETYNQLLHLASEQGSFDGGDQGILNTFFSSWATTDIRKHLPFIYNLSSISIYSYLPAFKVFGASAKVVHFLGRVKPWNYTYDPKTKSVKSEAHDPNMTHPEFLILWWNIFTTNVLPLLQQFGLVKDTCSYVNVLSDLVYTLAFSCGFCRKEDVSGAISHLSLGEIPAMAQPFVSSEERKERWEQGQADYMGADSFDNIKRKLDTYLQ
hGYS1 enzyme (recombinant hGYS1/GN1 protein), sequence (P13807 whole entry): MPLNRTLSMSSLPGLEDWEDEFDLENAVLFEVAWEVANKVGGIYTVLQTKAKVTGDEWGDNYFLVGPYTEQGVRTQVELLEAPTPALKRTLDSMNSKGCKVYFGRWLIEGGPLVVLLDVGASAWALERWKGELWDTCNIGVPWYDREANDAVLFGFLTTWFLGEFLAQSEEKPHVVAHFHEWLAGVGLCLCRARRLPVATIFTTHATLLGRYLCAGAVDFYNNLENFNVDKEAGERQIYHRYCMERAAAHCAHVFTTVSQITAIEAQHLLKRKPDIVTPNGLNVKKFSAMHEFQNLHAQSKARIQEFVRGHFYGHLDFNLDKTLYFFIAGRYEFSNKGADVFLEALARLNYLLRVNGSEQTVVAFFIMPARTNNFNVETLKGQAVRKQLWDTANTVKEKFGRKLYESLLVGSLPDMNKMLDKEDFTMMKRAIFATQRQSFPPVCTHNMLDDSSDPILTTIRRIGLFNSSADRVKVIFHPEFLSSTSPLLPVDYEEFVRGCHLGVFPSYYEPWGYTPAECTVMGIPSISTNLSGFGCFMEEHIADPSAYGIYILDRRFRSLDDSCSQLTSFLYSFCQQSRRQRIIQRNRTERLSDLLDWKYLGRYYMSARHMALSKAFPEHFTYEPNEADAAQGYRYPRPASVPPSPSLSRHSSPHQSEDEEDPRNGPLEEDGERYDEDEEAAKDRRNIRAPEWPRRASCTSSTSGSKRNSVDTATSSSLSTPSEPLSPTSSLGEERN
hGYS1 enzyme (recombinant hGYS1/GN1 protein), sequence (P46976 whole entry partner): as the sequence (P46976 whole entry partner) above

Take `CC(=O)N1CCC(C(C)C(=O)N2C[C@H](F)C[C@H]2C(=O)N[C@@H](c2ccccc2)c2ccc(C(C)C)cc2)CC1` (stereo partly drawn) [Compound 180, (2S,4R)-1-[2-(1-acetylpiperidin-4-yl)propanoyl]-4-fluoro-N-[(S)-phenyl[4-(propan-2-yl)phenyl]methyl]pyrrolidine-2-carboxamide]: the IC50 in assay [1] was 235 nM; in assay [2], > 100000 nM.
Consider `CC(C)c1ccc([C@@H](NC(=O)[C@@H]2C[C@@H](F)CN2C(=O)Cn2nnc3ccccc32)c2ccccc2)cc1` [Compound 68, (2S,4R)-1-[2-(1H-1,2,3-benzotriazol-1-yl)acetyl]-4-fluoro-N-[(S)-phenyl[4-(propan-2-yl)phenyl]methyl]pyrrolidine-2-carboxamide], for which the IC50 is 34 nM in assay [1] and > 100000 nM in assay [2].
With `CC(=O)N1CCC[C@@H]1CC(=O)N1C[C@H](F)C[C@H]1C(=O)N[C@@H](c1ccccc1)c1ccc(C(C)C)cc1` [Compound 155, (2S,4R)-1-{2-[(2R)-1-acetylpyrrolidin-2-yl]acetyl}-4-fluoro-N-[(S)-phenyl[4-(propan-2-yl)phenyl]methyl]pyrrolidine-2-carboxamide], the IC50 was 206 nM in assay [1] and > 100000 nM in assay [2].
For `CC(C)c1ccc([C@@H](NC(=O)[C@@H]2C[C@@H](F)CN2C(=O)Cc2ccn(C)n2)c2ccccc2)cc1F` [Compound 350, (2S,4R)-4-fluoro-N-[(S)-[3-fluoro-4-(propan-2-yl)phenyl](phenyl)methyl]-[2-(1-methyl-1H-pyrazol-3-yl)acetyl]pyrrolidine-2-carboxamide], in that order: 20 nM and > 100000 nM.
Take `CC(C)c1ccc([C@@H](NC(=O)[C@@H]2C[C@@H](F)CN2C(=O)C(C)n2cnnn2)c2ccccc2)cc1F` (single isomer, unassigned) [Compound 767, (2S,4R)-4-fluoro-N-[(S)-[3-fluoro-4-(propan-2-yl)phenyl](phenyl)methyl]-1-[(2S) or (2R)-2-(1H-1,2,3,4-tetrazol-1-yl)propanoyl]pyrrolidine-2-carboxamide]: the IC50 in assay [1] is 106 nM; in assay [2] it was > 100000 nM.
The corresponding values for `CC(C)c1ccc([C@@H](NC(=O)[C@@H]2C[C@@H](F)CN2C(=O)C(C)n2ccnc2)c2ccccc2)cc1` (stereo partly drawn) [Compound 44, (2S,4R)-4-fluoro-1-[2-(1H-imidazol-1-yl)propanoyl]-N-[(S)-phenyl[4-(propan-2-yl)phenyl]methyl]pyrrolidine-2-carboxamide] are 106 nM and > 100000 nM.
The corresponding values for `CC(C)c1ccc([C@@H](NC(=O)[C@@H]2C[C@@H](F)CN2C(=O)Cc2c[nH]c3ccccc23)c2ccccc2)cc1` [Compound 86, (2S,4R)-4-fluoro-1-[2-(1H-indol-3-yl)acetyl]-N-[(S)-phenyl[4-(propan-2-yl)phenyl]methyl]pyrrolidine-2-carboxamide] are 12 nM and > 100000 nM.
`Cc1noc(C)c1CC(=O)N1C[C@H](F)C[C@H]1C(=O)N[C@@H](c1ccccc1)c1ccc(C(C)C)cc1` [Compound 70, (2S,4R)-1-[2-(3,5-dimethyl-1,2-oxazol-4-yl)acetyl]-4-fluoro-N-[(S)-phenyl[4-(propan-2-yl)phenyl]methyl]pyrrolidine-2-carboxamide]: the IC50 was 50 nM in assay [1] and > 100000 nM in assay [2].
On to `COc1cccc(CC(=O)N2C[C@H](F)C[C@H]2C(=O)N[C@@H](c2ccccc2)c2ccc(C(C)C)cc2)n1` [Compound 81, (2S,4R)-4-fluoro-1-[2-(6-methoxypyridin-2-yl)acetyl]-N-[(S)-phenyl[4-(propan-2-yl)phenyl]methyl]pyrrolidine-2-carboxamide], for which the IC50 in assay [1] was 25 nM; in assay [2], > 100000 nM.
For `CC(C)c1ccc([C@@H](NC(=O)[C@@H]2C[C@@H](F)CN2C(=O)CCCc2cccnc2)c2ccccc2)cc1` [Compound 94, (2S,4R)-4-fluoro-N-[(S)-phenyl[4-(propan-2-yl)phenyl]methyl]-1-[4-(pyridin-3-yl)butanoyl]pyrrolidine-2-carboxamide], in that order: 188 nM and > 100000 nM.
For the molecule `CC(=O)N1C[C@H](F)C[C@H]1C(=O)N[C@@H](c1ccccc1)c1ccc(C(C)C)cc1` [Compound 207, (2S,4R)-1-acetyl-4-fluoro-N-[(S)-phenyl[4-(propan-2-yl)phenyl]methyl]pyrrolidine-2-carboxamide], the IC50 was 387 nM in assay [1] and > 100000 nM in assay [2].
Turning to `CC(C)c1ccc([C@@H](NC(=O)[C@@H]2C[C@@H](F)CN2C(=O)CN2CCOC2=O)c2ccccc2)cc1` [Compound 217], the results for the IC50 in assay [1] and in assay [2] were 96 nM and > 100000 nM, respectively.
For `CN(C)C(=O)NCC(=O)N1C[C@H](F)C[C@H]1C(=O)N[C@@H](c1ccccc1)c1ccc(C2CC2)c(F)c1` [Compound 441, (2S,4R)-N-[(S)-(4-cyclopropyl-3-fluorophenyl)(phenyl)methyl]-1-{2-[(dimethylcarbamoyl)amino]acetyl}-4-fluoropyrrolidine-2-carboxamide], in that order: 51 nM and > 100000 nM.
Turning to `CC(C)c1ccc([C@@H](NC(=O)[C@@H]2C[C@@H](F)CN2C(=O)Cc2nnc(CNC(=O)OC(C)(C)C)o2)c2ccccc2)cc1` [Compound 237, tert-butyl N-[(5-{2-[(2S,4R)-4-fluoro-2-{[(S)-phenyl[4-(propan-2-yl)phenyl]methyl]carbamoyl}pyrrolidin-1-yl]-2-oxoethyl}-1,3,4-oxadiazol-2-yl)methyl]carbamate], the results for the IC50 in assay [1] and in assay [2] were 54 nM and > 100000 nM, respectively.
For `CC(=O)N1CC[C@H](O)[C@H]1C(=O)N[C@@H](c1ccccc1)c1ccc(C(C)C)cc1` [Compound 206, (2S,3S)-1-acetyl-3-hydroxy-N-[(S)-phenyl[4-(propan-2-yl)phenyl]methyl]pyrrolidine-2-carboxamide], in that order: 2480 nM and > 100000 nM.
As to `CC(=O)N1C[C@H]2C[C@H](C(=O)N3C[C@H](F)C[C@H]3C(=O)N[C@@H](c3ccccc3)c3ccc(C(C)C)cc3)O[C@H]2C1` [Compound 162, (2S,4R)-1-[(2R,3aR,6aR)-5-acetyl-hexahydro-2H-furo[2,3-c]pyrrole-2-carbonyl]-4-fluoro-N-[(S)-phenyl[4-(propan-2-yl)phenyl]methyl]pyrrolidine-2-carboxamide], the values for the IC50 in assay [1] and in assay [2] were 136 nM and > 100000 nM, respectively.
On to `CC(C)c1ccc([C@@H](NC(=O)[C@@H]2C[C@@H](F)CN2C(=O)CCc2cnn(C)c2)c2ccccc2)cc1` [Compound 76, (2S,4R)-4-fluoro-1-[3-(1-methyl-1H-pyrazol-4-yl)propanoyl]-N-[(S)-phenyl[4-(propan-2-yl)phenyl]methyl]pyrrolidine-2-carboxamide], for which the IC50 was 106 nM in assay [1] and > 100000 nM in assay [2].
For `CC(C)c1ccc([C@@H](NC(=O)[C@@H]2C[C@@H](F)CN2C(=O)Cc2cnnn2C)c2ccccc2)cc1` (stereo in doubt) [Compound 228, (2RS,4R)-4-fluoro-1-[2-(1-methyl-1H-1,2,3-triazol-5-yl)acetyl]-N-[(S)-phenyl[4-(propan-2-yl)phenyl]methyl]pyrrolidine-2-carboxamide], the IC50 in assay [1] is 77 nM; in assay [2], > 100000 nM.
The corresponding values for `CC(C)c1ccc([C@@H](NC(=O)[C@@H]2C[C@@H](F)CN2C(=O)Cc2cscn2)c2ccccc2)cc1` [Compound 15, (2S,4R)-4-fluoro-N-[(S)-phenyl[4-(propan-2-yl)phenyl]methyl]-1-[2-(1,3-thiazol-4-yl)acetyl]pyrrolidine-2-carboxamide] are 48 nM and > 100000 nM.
On to `Cc1noc(CC(=O)N2C[C@H](F)C[C@H]2C(=O)N[C@@H](c2ccccc2)c2ccc(C(C)C)cc2)n1` [Compound 31, (2S,4R)-4-fluoro-1-[2-(3-methyl-1,2,4-oxadiazol-5-yl)acetyl]-N-[(S)-phenyl[4-(propan-2-yl)phenyl]methyl]pyrrolidine-2-carboxamide], for which the IC50 is 48 nM in assay [1] and > 100000 nM in assay [2].
